Peptide text beside a SMILES is read from it.
What was measured:
[1] = tested on: T lymphocytes (spleen lymphocyte suspension); experiment: Effect of YSV on T lymphocyte transformation in vitro (ConA, MTT); format: cell-based, BALB/c Mice; conditions: for X ± SD (OD), T lymphocytes transformation: 68 hrs, MTT OD570 nm, positive control 0.14 ± 0.00
Protocol: Healthy mice were sacrificed by cervical dislocation. The spleens were isolated and dispersed aseptically. The spleen lymphocyte suspension washed and adjusted to a cell density of 5×10^6/ml with RPMI-1640 culture medium containing 10% fetal bovine serum. YSV was diluted with RPMI-1640 culture medium into various concentrations: 2 μg/ml, 0.4 μg/ml, 0.08 μg/ml, 0.016 μg/ml. Con A working solution was adjusted to 1 mg/ml with RPMI-1640 culture medium.
The reagents were placed onto a 96 wells cell culture plate according to the following: 100 μl/well lymphocyte suspension, 20 μl/well ConA, and 100 μl/well YSV solution of various concentrations, 6 parallel wells for each concentration; 100 μl/well lymphocyte suspension and 120 μl/well RPMI-1640 culture medium (containing 10% FBS) were added to 12 parallel wells as negative control; 100 μl/well lymphocyte suspension, 100 μl/well RPMI-1640 culture medium (10% FBS) and 20 μl/well ConA were added to 12 parallel wells as positive control.
The cells were incubated for 68 hrs at 37° C., 5% CO2, and then pelleted by centrifugation at 150 g for 10 minutes. After the supernatant was removed, 50 μl/well MTT of 1 mg/ml in RPMI-1640 was added to the cell pellet and the cells were re-suspended by shaking for 2 minutes. The incubation was continued for 4 hours. The supernatant was removed after centrifugation at 150 g for 10 minutes. After blotted dry with filter paper, the cells were mixed with 120 μl 40 mM HCl-2-propanol and shaken for 3 minutes. OD570 nm of each well referenced at 630 nm was obtained with an ELISA reader.

[2] = tested on: human leukemia K562 cells; experiment: Proliferation of cultured human leukemia K562 cells in vitro (MTT); format: cell-based; conditions: for % inhibition / OD value: 48 hours; for OD value: MTT OD570 nm, negative control 0.43 ± 0.01
Protocol: A human leukemia K562 cell at logarithmic growth phase was adjusted to density of 5×10^4/ml with RPMI-1640 culture medium containing 10% FBS. 100 μl/well of the cell were placed onto a 96 wells cell culture plate. The cells were incubated for 24 hours at 37° C., 5% CO2. The experiment included […] with different concentrations of YSV in culture medium and a negative control group with culture medium only. The final concentrations of YSV were 40 μg/ml, 20 μg/ml, 10 μg/ml, and 5 μg/ml. Each group contained five parallel wells. 100 μl/well testing solution was added to the treated cells. The cells were incubated for 48 hours at 37° C., 5% CO2.
The cells were then pelleted by centrifugation at 150 g for 10 minutes. The supernatant was removed and 100 μl/well MTT solution of 0.5 mg/ml in RPMI-1640 was added to the cell pellets and the cells were re-suspended by shaking for 2 minutes. Incubation was continued for 4 hours. The supernatant was removed after a centrifugation at 150 g for 10 minutes. After blotted dry by filter paper, 100 μl/well 40 mM HCl-2-propanol was added to the cell pellets and shaken for 3 minutes. OD570 nm of each well referenced at 630 nm was obtained by using ELISA reader.

human leukemia K562 = experiment: Growth of nude mice-transplanted human leukemia K562; format: in vivo, nude mice (BALB/C (nu/nu))
Protocol: K-562 cells were maintained in RPMI-1640 medium with 10% FBS at 37° C., 5% CO2.
K562 cells at log phase were adjusted to 1.6×10^8/ml with RPMI-1640. 0.1 ml of this was subcutaneously injected to the right flank of the healthy nude mice to form the leukemia mice model.
The mice bearing human leukemia K562 cells were randomized into groups of: saline control (0.2 ml/day), and YSV (160 μg/kg/day). The test substance was dissolved in 0.2 ml saline and administration of the test substance by intraperitoneal injection was started on the next day after the K562 inoculation, once per day for 30 consecutive days.
The general conditions of the mice was examined daily and the tumor size was measured in every 3-4 days. Tumor volume (mm^3) V=(⅙)πXYZ where X, Y, and Z were the diameters of the tumor on the three planes.
On the next day after the last test substance administration, the tumors were excised, the weight of tumor was recorded and the tumor volume was measured. Tumor growth inhibition index (%)=(mean tumor weight of control group—mean tumor weight of treatment group)/mean tumor weight of control group×100)
All the data were shown as arithmetic mean ±SD. The data were analyzed using the ANOVA test of the SPSS software. P<0.05 was accepted as having statistical significance.

melanoma B16 = experiment: Growth of C57BL/6 mice-transplanted melanoma B16; format: in vivo; conditions: for The Inhibition rate (%) / Tumor weight: 20 consecutive days; for Tumor weight: saline 2.64 ± 0.68
Protocol: B16 cells were maintained in RPMI-1640 medium with 10% FBS at 37° C., 5% CO2. Mouse B16 melanoma culture at log phase was adjusted to 2.5×10^6/ml with Hank's solution. 0.2 ml of this was subcutaneously injected to the right axilla of healthy C57 BL/6 mice to form the melanoma mice model. […] From the next day after the tumor implantation, the general conditions of the mice and the growth of the tumor were observed daily. On the next day after the last test substance administration, the tumors were extirpated and the weights of tumor were measured. […] The results were presented as arithmetic mean ±SD. Statistical analysis was performed using the ANOVA test of the SPSS software.

[3] = suitable dosage, p<0.05 vs saline

CC(C)[C@H](NC(=O)[C@H](CO)NC(=O)[C@@H](N)Cc1ccc(O)cc1)C(=O)O [YSV, L-Tyrosyl-L-seryl-L-valine] (H-Tyr-Ser-Val-OH)
stimulation of T lymphocyte transformation activity in vitro (conclusion) ([1]; 0.016 μg/ml to 2 μg/ml, p<0.001): able to stimulate the T lymphocyte transformation activity in vitro with statistical significance | X ± SD (OD), T lymphocytes transformation ([1]; YSV 0.016 μg/ml with ConA): 0.21 ± 0.01 OD | X ± SD (OD), T lymphocytes transformation ([1]; YSV 0.08 μg/ml with ConA): 0.23 ± 0.00 OD | X ± SD (OD), T lymphocytes transformation ([1]; YSV 0.4 μg/ml with ConA): 0.18 ± 0.01 OD | X ± SD (OD), T lymphocytes transformation ([1]; YSV 2 μg/ml with ConA): 0.18 ± 0.00 OD | inhibition of growth of K562 cells in vitro (conclusion) ([2]; 5 μg/ml to 40 μg/ml, p<0.05): able to inhibit the growth of human leukemia K562 cells in vitro | % inhibition ([2]; 5 μg/ml): 9.7% | OD value ([2]; 5 μg/ml): 0.39 ± 0.01 | % inhibition ([2]; 10 μg/ml): 9.3% | OD value ([2]; 10 μg/ml): 0.39 ± 0.01 | % inhibition ([2]; 20 μg/ml): 11.3% | OD value ([2]; 20 μg/ml): 0.38 ± 0.00 | % inhibition ([2]; 40 μg/ml): 10.8% | OD value ([2]; 40 μg/ml): 0.38 ± 0.00 | Inhibition index (%) (human leukemia K562; 160 μg/kg/day intraperitoneal, 30 consecutive days, from tumor weight vs saline): 37.9% | Tumor weight (human leukemia K562; 160 μg/kg/day intraperitoneal, 30 consecutive days, saline 4.75 ± 2.21): 2.95 ± 1.58 g | Tumor volume (cm3) (human leukemia K562; 160 μg/kg/day intraperitoneal, 30 consecutive days, saline 5.08 ± 2.15): 3.15 ± 1.74 cm3 | inhibition of growth of nude mice-transplanted K562 (conclusion) (human leukemia K562; [3]): able to inhibit the growth of nude mice-transplanted significantly human leukemia K562 | The Inhibition rate (%) (melanoma B16; 320 μg/kg/day intraperitoneal): 39.6% | Tumor weight (melanoma B16; 320 μg/kg/day intraperitoneal): 1.60 ± 1.21 g | The Inhibition rate (%) (melanoma B16; 640 μg/kg/day intraperitoneal): 44.6% | Tumor weight (melanoma B16; 640 μg/kg/day intraperitoneal): 1.47 ± 0.92 g | inhibition of growth of B16 melanoma in C57BL/6 mice (conclusion) (melanoma B16; [3]): able to inhibit the growth of B16 melanoma in C57BL/6 mice

Reference: patent publication US7427599B2, “Biologically active peptide comprising Tyrosyl-seryl-valine(YSV)” (CMS Peptides Patent Holding Company Limited, priority 2003, dated 2008)
